System: blastopore upper lip of early gastrula of a Xenopus
Experiment: Tissue differentiation of blastopore upper lip cultured continuously in retinoic acid solution for 10 days
Assay type: cell-based
Conditions: for Neural tissue differentiated, specimens (%) / Notochord differentiated, specimens (%) / Pancreas differentiated, specimens (%) / Pharyngeal epithelium differentiated, specimens (%) / Pronephros differentiated, specimens (%) / Yolk-rich cell differentiated, specimens (%) / Atypical epidermis differentiated, specimens (%) / Cartilage differentiated, specimens (%) / Cement gland differentiated, specimens (%) / Coelomic epithelium differentiated, specimens (%) / Ear vesicle differentiated, specimens (%) / Epidermis differentiated, specimens (%) / Eye or its fragments differentiated, specimens (%) / Gastric gland differentiated, specimens (%) / Hemocyte differentiated, specimens (%) / Intestinal epithelium differentiated, specimens (%) / Mesenchyme differentiated, specimens (%) / Muscle differentiated, specimens (%): continuous 10 days

## CC1=C(/C=C/C(C)=C/C=C/C(C)=C/C(=O)O)C(C)(C)CCC1 [Retinoic acid, retinoic acid]
10^−5 M, 17 specimens
  Neural tissue differentiated, specimens (%): 0 (0)
  Notochord differentiated, specimens (%): 14 (82)
  Pancreas differentiated, specimens (%): 2 (12)
  Pharyngeal epithelium differentiated, specimens (%): 5 (29)
  Pronephros differentiated, specimens (%): 0 (0)
  Yolk-rich cell differentiated, specimens (%): 15 (88)
10^−6 M, 16 specimens
  Atypical epidermis differentiated, specimens (%): 0 (0)
  Cartilage differentiated, specimens (%): 0 (0)
  Cement gland differentiated, specimens (%): 0 (0)
  Coelomic epithelium differentiated, specimens (%): 2 (13)
  Ear vesicle differentiated, specimens (%): 0 (0)
  Epidermis differentiated, specimens (%): 1 (6)
  Eye or its fragments differentiated, specimens (%): 0 (0)
  Gastric gland differentiated, specimens (%): 2 (13)
  Hemocyte differentiated, specimens (%): 0 (0)
  Intestinal epithelium differentiated, specimens (%): 14 (88)
  Mesenchyme differentiated, specimens (%): 13 (81)
  Muscle differentiated, specimens (%): 3 (19)
  Neural tissue differentiated, specimens (%): 0 (0)
  Notochord differentiated, specimens (%): 14 (88)
  Pancreas differentiated, specimens (%): 1 (6)
  Pharyngeal epithelium differentiated, specimens (%): 3 (19)
  Pronephros differentiated, specimens (%): 0 (0)
  Yolk-rich cell differentiated, specimens (%): 14 (88)
10^−7 M, 15 specimens
  Atypical epidermis differentiated, specimens (%): 0 (0)
  Cartilage differentiated, specimens (%): 0 (0)
  Cement gland differentiated, specimens (%): 0 (0)
  Coelomic epithelium differentiated, specimens (%): 9 (60)
  Ear vesicle differentiated, specimens (%): 0 (0)
  Epidermis differentiated, specimens (%): 8 (53)
  Eye or its fragments differentiated, specimens (%): 0 (0)
  Gastric gland differentiated, specimens (%): 3 (20)
  Hemocyte differentiated, specimens (%): 0 (0)
  Intestinal epithelium differentiated, specimens (%): 5 (33)
  Mesenchyme differentiated, specimens (%): 9 (60)
  Muscle differentiated, specimens (%): 4 (27)
  Neural tissue differentiated, specimens (%): 2 (13)
  Notochord differentiated, specimens (%): 14 (93)
  Pancreas differentiated, specimens (%): 1 (7)
  Pharyngeal epithelium differentiated, specimens (%): 9 (60)
  Pronephros differentiated, specimens (%): 1 (7)
  Yolk-rich cell differentiated, specimens (%): 13 (87)
10^−8 M, 20 specimens
  Atypical epidermis differentiated, specimens (%): 0 (0)
  Cartilage differentiated, specimens (%): 9 (45)
  Cement gland differentiated, specimens (%): 0 (0)
  Coelomic epithelium differentiated, specimens (%): 6 (30)
  Ear vesicle differentiated, specimens (%): 0 (0)
  Epidermis differentiated, specimens (%): 19 (95)
  Eye or its fragments differentiated, specimens (%): 0 (0)
  Gastric gland differentiated, specimens (%): 0 (0)
  Hemocyte differentiated, specimens (%): 0 (0)
  Intestinal epithelium differentiated, specimens (%): 2 (10)
  Mesenchyme differentiated, specimens (%): 19 (95)
  Muscle differentiated, specimens (%): 12 (60)
  Neural tissue differentiated, specimens (%): 7 (35)
  Notochord differentiated, specimens (%): 17 (85)
  Pancreas differentiated, specimens (%): 1 (5)
  Pharyngeal epithelium differentiated, specimens (%): 12 (60)
  Pronephros differentiated, specimens (%): 0 (0)
  Yolk-rich cell differentiated, specimens (%): 9 (45)
10^−9 M, 11 specimens
  Atypical epidermis differentiated, specimens (%): 0 (0)
  Cartilage differentiated, specimens (%): 5 (45)
  Cement gland differentiated, specimens (%): 0 (0)
  Coelomic epithelium differentiated, specimens (%): 5 (45)
  Ear vesicle differentiated, specimens (%): 0 (0)
  Epidermis differentiated, specimens (%): 11 (100)
  Eye or its fragments differentiated, specimens (%): 0 (0)
  Gastric gland differentiated, specimens (%): 0 (0)
  Hemocyte differentiated, specimens (%): 0 (0)
  Intestinal epithelium differentiated, specimens (%): 0 (0)
  Mesenchyme differentiated, specimens (%): 10 (91)
  Muscle differentiated, specimens (%): 9 (82)
  Neural tissue differentiated, specimens (%): 9 (82)
  Notochord differentiated, specimens (%): 11 (100)
  Pancreas differentiated, specimens (%): 0 (0)
  Pharyngeal epithelium differentiated, specimens (%): 7 (64)
  Pronephros differentiated, specimens (%): 0 (0)
  Yolk-rich cell differentiated, specimens (%): 8 (73)
Continuous treatment 10 days, any concentration tested
  formation rate of pancreas: about 10%

— US20030186434A1, “Method of forming vertebrate pancreas in vitro” (priority 2002, published 2003)
